Values quoted from earlier work as cited in patent EP1060743A1, “Oral cisapride dosage forms with an extended duration” (DEVELOPMENT CENTER FOR BIOTECHNOLOGY, priority 1999, dated 2000).
Like-named read-outs stand apart in the source and are kept apart here.

solubility of cisapride (pH condition near neutral (pH of intestinal fluid)): almost insoluble
solubility of cisapride (under acidic conditions): better solubility
SMILES: COc1cc(N)c(Cl)cc1C(=O)NC1CCN(CCCOc2ccc(F)cc2)CC1OC (racemic) [cisapride, (±)-cis-4-amino-5-chloro-N-1-[3-(4-fluorophenoxy)propyl]-3-methoxy-4-piperidine-2-methoxybenzamide monohydrate]
